Tests used:
SKBR3 cells = assay: Soft-agar colony formation, SKBR3; type: cell-based, human; settings: 10 μM
Method: (§1) FIGS. 2A-G illustrate effects of 968 on the transforming activity of constitutively active Rho GTPases and human breast cancer cells. […] Cells were scored after 14 days and plotted as the percentage of the total number of colonies greater than 50 μm in diameter. Data represent the average of 3 experiments (±s.d.). […] Data represent the average of 3 experiments (±s.d.). […] Data represent the average of 3 experiments (±s.d.). […] After 24 hours at 37° C., the migratory cells were fixed, stained with GIEMSA, and counted. Data represent the average of 3 experiments (±s.d.). […] Data represent the average of 3 experiments (±s.d.). […] Data represent the average of 3 experiments (±s.d.). […] Data represent the average of 3 experiments (±s.d.).

normal NIH 3T3 cells = assay: Growth and morphology of control NIH 3T3 cells; type: cell-based, mouse; settings: 10% calf serum; 10 μM (growth), 5 μM (morphology)
Method: FIGS. 1A-E illustrate that the small molecule 968 inhibits cellular transformation. […] Cells were fixed and stained with crystal violet for counting of foci. Right: 968 was serially diluted (10, 5, 2.5, and 1.25 μM) and evaluated for its ability to inhibit focus formation. […] After 6 days, the cells were counted. 100% represents the number of Dbl-transformed cells counted in the absence of 968 (27.5×10^4 cells). Data represent the average of 3 experiments (±s.d.). […] At the indicated times, the cells were counted. Data represent the average of 3 experiments (±s.d.).

[1] = system: GA activity of MDA-MB231 cells; assay: GA activity in mitochondrial fractions of treated MDA-MB231 cells; type: cell-based, human; settings: 10 μM, 48 hours
Method: (§2) 100%=620 moles of glutamine hydrolyzed per minute per mole of enzyme. Data represent the average of 3 experiments (±s.d.). […] Following precipitation of the beads and re-suspension, the samples were analyzed by Western blotting with anti-V5 antibody. […] Data represent the average of 3 experiments (±s.d.). […] Data represent the average of 3 experiments (±s.d.). […] Data represent the average of 3 experiments (±s.d.). FIG. 3E NIH 3T3 cells transiently expressing Dbl were assayed for focus formation in the presence of 10 μM 968 alone or together with 7 mM dimethyl α-ketoglutarate. […] 100%=680 nM glutamine hydrolyzed per minute per 10^5 cells. Data are the average of 3 experiments (±s.d.). […] 100%=750 nM glutamine hydrolyzed per minute per 10^5 cells. Data represent the average of 3 experiments (±s.d.).
Mitochondrial preparations were obtained using the mitochondria isolation kit from QIAGEN (Cat #37612). A suspension containing 2×10^7 cells was transferred into a 50 ml conical tube and centrifuged at 500×g for 10 minutes at 4° C. The pellets were resuspended in 2 ml of ice-cold lysis buffer (supplied by QIAGEN) and incubated for 10 minutes at 4° C. using an end-over-end shaker. […]

[2] = system: NIH 3T3 cells stably expressing Cdc42(F28L), Rac(F28L), RhoC(F30L); assay: Soft-agar colony formation of cells expressing activated Rho GTPase mutants; type: cell-based, mouse; settings: 10 μM, 14 days
Method: as §1

[3] = system: GA activity of SKBR3 cells; assay: GA activity in mitochondrial fractions of treated SKBR3 cells; type: cell-based, human; settings: 10 μM, 48 hours
Method: as §2
FIGS. 4A-E illustrate the role of glutaminase C activity in cellular transformation. […] Data represent the average of 3 experiments (±s.d.). […] Data represent the average of 3 experiments (±s.d.). […] 100% represents the activity measured in untreated Dbl-transformed cells. The data represent the average of 2 experiments. […] 100% represents the activity measured in untreated SKBR3 cells. The data represent the average of 2 experiments. […] Data represent the average of 3 experiments (±s.d.).
FIGS. 11A-E illustrate the effects of different treatments on GA activity. […] The addition of Pi stimulated the GA activity in control 3T3 cells, Dbl-expressing cells, and Cdc42(F28L)-expressing cells by ˜6-fold, 2-fold, and 3-fold, respectively. 100% represents the Pi-stimulated activity measured for Dbl-transformed cells that were not treated with 968. Data is the average of 3 experiments (±s.d.). […] The addition of Pi stimulated the GA activity of HMECs, MDA-MB231 cells, and SKBR3 cells by ˜5-fold, 2-fold, and 1.4-fold, respectively. […] The data are plotted as the percentage of GA activity measured for untreated SKBR3 cells and represent the average of 2 experiments. […] 100% represents the Pi-stimulated activity measured for untreated Dbl-transformed cells. […]

CN(C)c1ccc(C2Nc3ccc4ccccc4c3C3=C2C(=O)CC(C)(C)C3)cc1Br (centres unmarked) [Compound 968, 5-[3-bromo-4-(dimethylamino)phenyl]-2,2-dimethyl-2,3,5,6-tetrahydrobenzo[a]]
colony formation in soft agar (SKBR3 cells): inhibits the ability | effect on growth or morphology of normal NIH 3T3 cells (normal NIH 3T3 cells): no significant effects | basal GA activity [1]: sensitive to 968 | colony formation in soft-agar [2]: blocking their ability | basal GA activity [3]: sensitive to 968
